Test results: patent US20110295037A1, “PROCESSES FOR PREPARING CINACALCET HYDROCHLORIDE AND POLYMORPHIC FORMS THEREOF” (MEDICHEM, S.A., priority 2006, published 2011)

Assay: Particle size distribution (Malvern Mastersizer S, by volume)
Assay type: physicochemical
Conditions: hydrochloride
Description: VI. Particle Size Distribution Method
The particle size for cinacalcet hydrochloride was measured using a Malvern Mastersizer S particle size analyzer with an MS1 Small Volume Sample Dispersion Unit stirred cell. A 300RF mm lens and a beam length of 2.4 mm were used. Samples for analysis were prepared by dispersing a weighed amount of cinacalcet hydrochloride (approximately 60 mg) in 20 mL of sample dispersant, previously prepared by dilution of 1.5 g of Soybean Lecithin to 200 mL with Isopar G. The suspension was delivered drop-wise to a background corrected measuring cell previously filled with dispersant (Isopar G) until the obscuration reached the desired level. Volume distributions were obtained for three times. After completing the measurements, the sample cell was emptied and cleaned, refilled with suspending medium, and the sampling procedure repeated again. For characterization, the values of D10, D50 and D90 (by volume) were specifically listed, each one being the mean of the nine values available for each characterization parameter.

In the case of `C[C@@H](NCCCc1cccc(C(F)(F)F)c1)c1cccc2ccccc12.Cl` [cinacalcet hydrochloride, N-[1-(R)-(−)-(1-naphthyl)ethyl]-3-[3-(trifluoromethyl)phenyl]-1-aminopropane hydrochloride], the “particle size distribution D90 (v)” value (after milling) is reported as 24 μm, the “particle size distribution D90 (v)” value (after recrystallization from heptane-isobutylacetate) is reported as 263 μm and the “particle size distribution D90 (v)” value (after recrystallization from isobutylacetate) is reported as 47 μm.
